Values joined by “and” are separate entries in the source; they are usually repeats but may differ in a detail not shown here. Equal values may be shown once. Inconclusive results are not listed.
Tested on: mice, ADJ-PC-20 plasma cell tumor sc, T/C %
Experiment: NCI In Vivo Anticancer Drug Screen. Data for tumor model ADJ-PC-20 Plasma Cell (subcutaneous) in unknown mice
Details: endpoint: mean tumor weight, higher = larger tumour
Protocol: The antitumor activity of compounds was measured in mice bearing transplantable tumors. Survival or tumor size were measured and the results are expressed as the measurement made in the treated group (T) divided by the measurement made in the vehicle treated control group (C). The tumor model used in this assay is ADJ-PC-20 Plasma Cell (subcutaneous) in unknown mice

[1] = dose: 62.5 mg/kg/injection, schedule: Q01DX010 (ip), vehicle: carboxymethylcellulose (CMC)
[2] = dose: 125.0 mg/kg/injection, schedule: Q01DX010 (ip), vehicle: carboxymethylcellulose (CMC)
[3] = dose: 2.0 mg/kg/injection, schedule: Q01DX010 (ip), vehicle: carboxymethylcellulose (CMC)
[4] = dose: 0.04 mg/kg/injection, schedule: Q01DX010 (ip), vehicle: other
[5] = dose: 0.08 mg/kg/injection, schedule: Q01DX010 (ip), vehicle: other
[6] = dose: 0.63 mg/kg/injection, schedule: Q01DX010 (ip), vehicle: carboxymethylcellulose (CMC)
[7] = dose: 1.25 mg/kg/injection, schedule: Q01DX010 (ip), vehicle: carboxymethylcellulose (CMC)
[8] = dose: 6.25 mg/kg/injection, schedule: Q01DX010 (ip), vehicle: carboxymethylcellulose (CMC)
[9] = dose: 25.0 mg/kg/injection, schedule: Q01DX010 (ip), vehicle: carboxymethylcellulose (CMC)
[10] = dose: 100.0 mg/kg/injection, schedule: Q01DX010 (ip), vehicle: carboxymethylcellulose (CMC)
[11] = dose: 250.0 mg/kg/injection, schedule: Q01DX010 (ip), vehicle: saline
[12] = dose: 12.5 mg/kg/injection, schedule: Q01DX010 (ip), vehicle: carboxymethylcellulose (CMC)
[13] = dose: 50.0 mg/kg/injection, schedule: Q01DX010 (ip), vehicle: carboxymethylcellulose (CMC)

Clc1ncnc2nc[nH]c12 was tested. Which T/C (dose: 7.8 mg/kg/injection, schedule: Q01DX010 (ip), vehicle: carboxymethylcellulose (CMC)) did it give?
Its T/C is 153 % of control.

And the T/C (dose: 15.6 mg/kg/injection, schedule: Q01DX010 (ip), vehicle: carboxymethylcellulose (CMC))?
The T/C was 86 % of control.

And the T/C (dose: 31.2 mg/kg/injection, schedule: Q01DX010 (ip), vehicle: carboxymethylcellulose (CMC))?
The T/C was 64 % of control.

And the T/C (dose: 31.25 mg/kg/injection, schedule: Q01DX010 (ip), vehicle: carboxymethylcellulose (CMC))?
The T/C was 14 % of control.

What about the T/C [1] of the same molecule?
The T/C was 3 % of control.

And the T/C [2]?
The T/C was 4 % of control.

What does the source list for CN(C)c1ccc(/C=C/c2ccnc3ccccc23)cc1?
T/C [3]: 117 % of control; T/C (dose: 4.0 mg/kg/injection, schedule: Q01DX010 (ip), vehicle: water): 81 % of control; T/C (dose: 16.0 mg/kg/injection, schedule: Q01DX010 (ip), vehicle: carboxymethylcellulose (CMC)): 89 % of control and 99 % of control; T/C (dose: 16.0 mg/kg/injection, schedule: Q01DX010 (ip), vehicle: water): 78 % of control; T/C (dose: 32.0 mg/kg/injection, schedule: Q01DX010 (ip), vehicle: carboxymethylcellulose (CMC)): 28 % of control

With N#Cc1cn(C2OC(CO)C(O)C2O)c2ncnc(N)c12 (stereo not drawn) as the molecule, how does the T/C (dose: 0.12 mg/kg/injection, schedule: Q01DX010 (ip), vehicle: carboxymethylcellulose (CMC)) read?
Its T/C is 47 % of control.

Which T/C (dose: 5.0 mg/kg/injection, schedule: Q01DX010 (sc), vehicle: steriod suspending solution) does the source give for CC(=O)O[C@]1(C(C)=O)CC[C@H]2[C@@H]3C[C@H](C)C4=CC(=O)C=C[C@]4(C)[C@@]3(F)[C@@H](O)C[C@@]21C here?
The T/C was 82 % of control.

What about the T/C (dose: 10.0 mg/kg/injection, schedule: Q01DX010 (sc), vehicle: steriod suspending solution) of the same molecule?
The T/C was 55 % of control.

What about the T/C (dose: 20.0 mg/kg/injection, schedule: Q01DX010 (sc), vehicle: steriod suspending solution) of the same molecule?
The T/C was 74 % of control.

And the T/C (dose: 40.0 mg/kg/injection, schedule: Q01DX010 (sc), vehicle: steriod suspending solution)?
The T/C was 73 % of control.

What about the T/C (dose: 80.0 mg/kg/injection, schedule: Q01DX010 (sc), vehicle: steriod suspending solution) of the same molecule?
Its T/C is 33 % of control.

Which results are given for CN(Cc1cnc2nc(N)nc(N)c2n1)c1ccc(C(=O)N[C@@H](CCC(=O)O)C(=O)O)cc1?
T/C [4]: 117 % of control; T/C [5]: 107 % of control; T/C (dose: 0.15 mg/kg/injection, schedule: Q01DX010 (ip), vehicle: other): 78 % of control; T/C (dose: 0.31 mg/kg/injection, schedule: Q01DX011 (ip), vehicle: other): 46 % of control; T/C (dose: 0.62 mg/kg/injection, schedule: Q01DX010 (ip), vehicle: other): 68 % of control and 89 % of control; T/C (dose: 0.62 mg/kg/injection, schedule: Q01DX011 (ip), vehicle: other): 59 % of control; T/C (dose: 0.63 mg/kg/injection, schedule: Q01DX010 (ip), vehicle: other): 88 % of control and 107 % of control

How did the T/C (dose: 62.0 mg/kg/injection, schedule: Q01DX010 (sc), vehicle: steriod suspending solution) turn out when CC[C@@H](c1ccc(O)cc1)[C@@H](CC)c1ccc(O)cc1 was run?
The T/C was 80 % of control.

And the T/C (dose: 125.0 mg/kg/injection, schedule: Q01DX010 (sc), vehicle: steriod suspending solution)?
The T/C was 87 % of control.

And the T/C (dose: 250.0 mg/kg/injection, schedule: Q01DX010 (sc), vehicle: steriod suspending solution)?
The T/C was 83 % of control.

What about the T/C (dose: 500.0 mg/kg/injection, schedule: Q01DX010 (sc), vehicle: steriod suspending solution) of the same molecule?
The T/C was 91 % of control and 105 % of control.

What about the T/C (dose: 1000.0 mg/kg/injection, schedule: Q01DX010 (sc), vehicle: steriod suspending solution) of the same molecule?
Its T/C is 111 % of control.

For NC(Cc1ccc(N(CCCl)CCCl)cc1)C(=O)O (stereo not drawn), which T/C (dose: 0.08 mg/kg/injection, schedule: Q01DX010 (ip), vehicle: carboxymethylcellulose (CMC)) is on record?
Its T/C is 99 % of control.

What about the T/C (dose: 0.16 mg/kg/injection, schedule: Q01DX010 (ip), vehicle: carboxymethylcellulose (CMC)) of the same molecule?
Its T/C is 107 % of control.

And the T/C [6]?
The T/C was 79 % of control.

And the T/C [7]?
Its T/C is 9 % of control.

Which results are given for CN(C)c1ccc(Nc2c3ccccc3nc3ccccc23)cc1?
T/C [8]: 88 % of control; T/C [9]: 115 % of control; T/C [10]: 67 % of control

For CCOC(N)=O, which T/C [11] is on record?
The T/C was 80 % of control and 95 % of control.

With Cn1c(N)nc2nc[nH]c2c1=S as the molecule, how does the T/C (dose: 6.3 mg/kg/injection, schedule: Q01DX010 (ip), vehicle: carboxymethylcellulose (CMC)) read?
Its T/C is 118 % of control.

And the T/C [12]?
The T/C was 105 % of control.

And the T/C [9]?
The T/C was 116 % of control.

What about the T/C [13] of the same molecule?
Its T/C is 98 % of control.

What about the T/C [10] of the same molecule?
The T/C was 76 % of control.

How did the T/C (dose: 0.05 mg/kg/injection, schedule: Q01DX010 (ip), vehicle: water) turn out when O=C(Nc1ccc(C2=NCCCN2)cc1)c1ccc(C(=O)Nc2ccc(C3=NCCCN3)cc2)cc1 was run?
Its T/C is 90 % of control.

And the T/C (dose: 0.1 mg/kg/injection, schedule: Q01DX010 (ip), vehicle: water)?
Its T/C is 83 % of control.

What about the T/C (dose: 0.2 mg/kg/injection, schedule: Q01DX010 (ip), vehicle: water) of the same molecule?
The T/C was 109 % of control.

What about the T/C (dose: 0.4 mg/kg/injection, schedule: Q01DX010 (ip), vehicle: water) of the same molecule?
Its T/C is 91 % of control and 92 % of control.

What about the T/C (dose: 3.12 mg/kg/injection, schedule: Q01DX010 (ip), vehicle: saline) of the same molecule?
Its T/C is 65 % of control.

Which results are given for COC12C(COC(N)=O)C3=C(C(=O)C(C)=C(N)C3=O)N1CC1C2N1C (stereo not drawn)?
T/C [6]: 81 % of control; T/C [7]: 43 % of control; T/C (dose: 2.5 mg/kg/injection, schedule: Q01DX010 (ip), vehicle: carboxymethylcellulose (CMC)): 13 % of control

Which results are given for COC1=C(N)C(=O)c2nc(-c3nc(C(=O)O)c(C)c(-c4ccc(OC)c(OC)c4O)c3N)ccc2C1=O?
T/C (dose: 0.02 mg/kg/injection, schedule: Q01DX010 (ip), vehicle: other): 97 % of control; T/C [4]: 66 % of control; T/C [5]: 71 % of control; T/C (dose: 0.17 mg/kg/injection, schedule: Q01DX010 (ip), vehicle: other): 44 % of control; T/C (dose: 0.34 mg/kg/injection, schedule: Q01DX010 (ip), vehicle: other): 13 % of control

For [I][Hg][CH2]C1COC([CH2][Hg][I])CO1 (stereo not drawn), which T/C (dose: 3.75 mg/kg/injection, schedule: Q01DX010 (ip), vehicle: carboxymethylcellulose (CMC)) is on record?
Its T/C is 87 % of control.

And the T/C (dose: 7.5 mg/kg/injection, schedule: Q01DX010 (ip), vehicle: carboxymethylcellulose (CMC))?
Its T/C is 111 % of control.

What about the T/C (dose: 15.0 mg/kg/injection, schedule: Q01DX010 (ip), vehicle: carboxymethylcellulose (CMC)) of the same molecule?
The T/C was 104 % of control.

What about the T/C (dose: 30.0 mg/kg/injection, schedule: Q01DX010 (ip), vehicle: carboxymethylcellulose (CMC)) of the same molecule?
The T/C was 115 % of control.

What does the source list for O=CCC(O)C(O)C(O)CO (stereo not drawn)?
T/C [1]: 110 % of control; T/C [2]: 115 % of control; T/C (dose: 250.0 mg/kg/injection, schedule: Q01DX010 (ip), vehicle: carboxymethylcellulose (CMC)): 117 % of control; T/C (dose: 500.0 mg/kg/injection, schedule: Q01DX010 (ip), vehicle: carboxymethylcellulose (CMC)): 80 % of control; T/C (dose: 1000.0 mg/kg/injection, schedule: Q01DX010 (ip), vehicle: carboxymethylcellulose (CMC)): 96 % of control; T/C (dose: 2000.0 mg/kg/injection, schedule: Q01DX010 (ip), vehicle: carboxymethylcellulose (CMC)): 94 % of control

Which T/C (dose: 9.4 mg/kg/injection, schedule: Q01DX010 (ip), vehicle: carboxymethylcellulose (CMC)) does the source give for O=C(Nc1ccc(C2=NCCN2)cc1)c1cccc(C(=O)Nc2ccc(C3=NCCN3)cc2)c1 here?
Its T/C is 154 % of control.

And the T/C (dose: 18.8 mg/kg/injection, schedule: Q01DX010 (ip), vehicle: carboxymethylcellulose (CMC))?
Its T/C is 214 % of control.

And the T/C (dose: 37.5 mg/kg/injection, schedule: Q01DX010 (ip), vehicle: carboxymethylcellulose (CMC))?
Its T/C is 187 % of control.

O=C(Nc1ccc(C2=NCCN2)cc1)c1ccc(C(=O)Nc2ccc(C3=NCCN3)cc2)cc1 was tested. Which T/C [9] did it give?
The T/C was 73 % of control.

What about the T/C [13] of the same molecule?
Its T/C is 78 % of control.

What about the T/C [10] of the same molecule?
Its T/C is 60 % of control.

And the T/C (dose: 200.0 mg/kg/injection, schedule: Q01DX010 (ip), vehicle: carboxymethylcellulose (CMC))?
Its T/C is 71 % of control.

What does the source list for CSc1ncnc2c1ncn2C1OC(CO)C(O)C1O (stereo not drawn)?
T/C (dose: 3.1 mg/kg/injection, schedule: Q01DX010 (ip), vehicle: carboxymethylcellulose (CMC)): 84 % of control; T/C [8]: 98 % of control; T/C [12]: 104 % of control; T/C [9]: 14 % of control

Cn1cnc([N+](=O)[O-])c1Sc1nc(N)nc2nc[nH]c12 was tested. Which T/C (dose: 0.5 mg/kg/injection, schedule: Q01DX010 (ip), vehicle: carboxymethylcellulose (CMC)) did it give?
Its T/C is 71 % of control.

What about the T/C (dose: 1.0 mg/kg/injection, schedule: Q01DX010 (ip), vehicle: carboxymethylcellulose (CMC)) of the same molecule?
The T/C was 33 % of control.

And the T/C [3]?
The T/C was 30 % of control and 31 % of control.

What about the T/C (dose: 4.0 mg/kg/injection, schedule: Q01DX010 (ip), vehicle: carboxymethylcellulose (CMC)) of the same molecule?
Its T/C is 2 % of control.

For CC(=O)N(C)C, which T/C [11] is on record?
The T/C was 60 % of control.

And the T/C (dose: 500.0 mg/kg/injection, schedule: Q01DX010 (ip), vehicle: saline)?
Its T/C is 75 % of control.

And the T/C (dose: 1000.0 mg/kg/injection, schedule: Q01DX010 (ip), vehicle: saline)?
Its T/C is 51 % of control.

— PubChem BioAssay AID332 (DTP/NCI, 2004)
